Data published in the supplement of paper PMC10627819.

Legend:
S. aureus DSM 20231 [1] = assay: fitness (endpoint OD595 vs no drug) (fraction); higher = more growth
Summary of the method: (§1)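 With the first reading as background, OD595 was measured every 30 min for 14 h in 384-well plates kept at 37 °C and inoculated at OD595 0.01. TSB, LB Lennox or CY was the medium. Fitness is the optical density at the transition into stationary phase divided by the robust mean of no-drug control wells, with a cap of 1.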

S. aureus Newman = assay: as above
Summary of the method: as §1

S. pneumoniae D39V = assay: as above
Summary of the method: as §1

S. aureus DSM 20231 [2] = assay: Bliss interaction score (quartile over a dose matrix) (fitness difference); higher = more antagonism (negative = synergy)
Summary of the method: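 Combination data were used to infer fitness under each single drug. Fitness is the OD595 at entry into stationary phase divided by the robust mean of the plate's no-drug wells, with a cap of 1. The Bliss score is the observed minus the expected product fitness, summarised by quartiles over technical, biological and donor/recipient replicates.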
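Throughout, for Bliss interaction score (quartile over a dose matrix): first quartile when negative (synergy) and third quartile when positive (antagonism).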

CO[C@@]12[C@H](COC(N)=O)C3=C(C(=O)C(C)=C(N)C3=O)N1C[C@@H]1N[C@@H]12 [Mitomycin C] + C[n+]1ccc(-c2cc[n+](C)cc2)cc1 [Paraquat]
fitness
Details	first compound 0.001075 µg/mL	first compound 0.00215 µg/mL	first compound 0.0043 µg/mL	first compound 0.0156 µg/mL	first compound 0.0312 µg/mL	first compound 0.0625 µg/mL
S. aureus DSM 20231 [1], partner 1.25 µg/mL	–	–	–	0.717	0.684	0.563
S. aureus DSM 20231 [1], partner 2.5 µg/mL	–	–	–	0.691	0.678	0.577
S. aureus DSM 20231 [1], partner 5 µg/mL	–	–	–	0.668	0.67	0.557
S. aureus Newman, partner 1.25 µg/mL	–	–	–	0.666	0.675	0.527
S. aureus Newman, partner 2.5 µg/mL	–	–	–	0.675	0.651	0.527
S. aureus Newman, partner 5 µg/mL	–	–	–	0.696	0.676	0.467
S. pneumoniae D39V, partner 1.5 µg/mL	0.955	0.94	0.862	–	–	–
S. pneumoniae D39V, partner 3 µg/mL	0.954	0.911	0.842	–	–	–
S. pneumoniae D39V, partner 6 µg/mL	0.961	0.919	0.783	–	–	–

fitness, S. pneumoniae D39V, one replicate
Details	first compound 0.002 µg/mL	first compound 0.004 µg/mL	first compound 0.008 µg/mL
partner 1.5 µg/mL	0.852	0.77	0.553
partner 3 µg/mL	0.862	0.781	0.592
partner 6 µg/mL	0.867	0.778	0.558

CC(=O)NC[C@H]1CN(c2ccc(N3CCOCC3)c(F)c2)C(=O)O1 [Linezolid] + COc1ccc2[nH]c([S+]([O-])Cc3ncc(C)c(OC)c3C)nc2c1 [Omeprazole]
Details	Bliss interaction score
S. aureus DSM 20231 [2]	0.192

O=c1[nH]cc(F)c(=O)[nH]1 [Fluorouracil] + O=C1CN(/N=C/c2ccc([N+](=O)[O-])o2)C(=O)N1 [Nitrofurantoin]
Details	Bliss interaction score
S. aureus DSM 20231 [2]	-0.206

CN[C@@H]1[C@H](O[C@H]2[C@H](O[C@H]3[C@H](O)[C@@H](O)[C@H](N=C(N)N)[C@@H](O)[C@@H]3N=C(N)N)O[C@@H](C)[C@]2(O)C=O)O[C@@H](CO)[C@H](O)[C@H]1O [Streptomycin] + Cc1ccc(C(C)C)c(O)c1 [Thymol]
Details	Bliss interaction score
S. aureus DSM 20231 [2]	-0.425

CO[C@@]12[C@H](COC(N)=O)C3=C(C(=O)C(C)=C(N)C3=O)N1C[C@@H]1N[C@@H]12 [Mitomycin C] + Cn1nnc(-c2ccc(-c3ccc(N4C[C@H](CO)OC4=O)cc3F)cn2)n1 [Tedizolid]
fitness
Details	partner 0.03125 µg/mL	partner 0.0625 µg/mL	partner 0.125 µg/mL	partner 0.25 µg/mL	partner 0.5 µg/mL
S. aureus DSM 20231 [1], first compound 0.0156 µg/mL	–	0.701	0.652	0.281	–
S. aureus DSM 20231 [1], first compound 0.0312 µg/mL	–	0.692	0.597	0.225	–
S. aureus DSM 20231 [1], first compound 0.0625 µg/mL	–	0.511	0.47	0.2	–
S. aureus Newman, first compound 0.0156 µg/mL	–	0.653	0.612	0.177	–
S. aureus Newman, first compound 0.0312 µg/mL	–	0.61	0.587	0.084	–
S. aureus Newman, first compound 0.0625 µg/mL	–	0.519	0.379	0.0559	–
S. pneumoniae D39V, first compound 0.001075 µg/mL	–	–	0.76	0.688	0.313
S. pneumoniae D39V, first compound 0.002 µg/mL	0.825	0.821	0.749	–	–
S. pneumoniae D39V, first compound 0.00215 µg/mL	–	–	0.774	0.687	0.273
S. pneumoniae D39V, first compound 0.004 µg/mL	0.745	0.725	0.686	–	–
S. pneumoniae D39V, first compound 0.0043 µg/mL	–	–	0.687	0.617	0.21
S. pneumoniae D39V, first compound 0.008 µg/mL	0.635	0.611	0.518	–	–
